Experimental data published in publication PMC10709440, “High-throughput ligand profile characterization in novel cell lines expressing seven heterologous insect olfactory receptors for the detection of volatile plant biomarkers” (Scientific Reports, 2023).
Where two headings read alike, the source gives them in different places.

Legend:
Drosophila OR13a = biological target: T1, Drosophila OR13a (Drosophila melanogaster, UniProt Q9VXL0); experiment: Calcium ion fluorescence (GCaMP6) assay, OR13a stable HEK293 cell line; assay type: cell-based; conditions: for OR13a response (VUAA1-normalized) at 1 μM / OR13a response (VUAA1-normalized) at 10 μM / OR13a response (VUAA1-normalized) at 100 μM: OR13a cell line
T1 construct: expressed in transfected cells
T1 sequence (Q9VXL0 1-418): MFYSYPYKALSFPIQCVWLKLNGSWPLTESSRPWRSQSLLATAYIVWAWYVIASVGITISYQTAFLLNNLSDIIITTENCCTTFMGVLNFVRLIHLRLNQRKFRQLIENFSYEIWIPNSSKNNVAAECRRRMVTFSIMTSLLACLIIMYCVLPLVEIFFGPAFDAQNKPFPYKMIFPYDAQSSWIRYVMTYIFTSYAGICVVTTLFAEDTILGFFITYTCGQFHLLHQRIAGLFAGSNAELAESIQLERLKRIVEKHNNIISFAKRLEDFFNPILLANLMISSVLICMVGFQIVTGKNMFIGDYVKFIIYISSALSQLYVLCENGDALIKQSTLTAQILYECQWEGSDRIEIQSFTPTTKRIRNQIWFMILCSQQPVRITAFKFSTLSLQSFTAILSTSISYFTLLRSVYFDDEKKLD
T1 sequence (Q9VNB5 1-486 partner): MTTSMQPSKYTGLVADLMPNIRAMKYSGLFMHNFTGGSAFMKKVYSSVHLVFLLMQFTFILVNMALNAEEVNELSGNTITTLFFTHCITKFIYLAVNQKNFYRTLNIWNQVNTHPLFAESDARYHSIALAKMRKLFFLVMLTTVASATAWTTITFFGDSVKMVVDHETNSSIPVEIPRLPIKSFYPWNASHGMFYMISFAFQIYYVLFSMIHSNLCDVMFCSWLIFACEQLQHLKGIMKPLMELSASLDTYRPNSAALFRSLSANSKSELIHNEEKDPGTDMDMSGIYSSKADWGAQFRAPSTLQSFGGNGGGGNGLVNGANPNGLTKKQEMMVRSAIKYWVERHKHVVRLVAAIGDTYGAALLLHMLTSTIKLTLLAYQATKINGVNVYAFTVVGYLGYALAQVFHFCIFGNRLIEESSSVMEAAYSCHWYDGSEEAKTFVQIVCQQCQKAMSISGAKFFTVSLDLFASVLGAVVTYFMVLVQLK
Protocol: (§1) These VUAA1 normalized ∆F values were used to compare the different receptors and ligands.
(§2) The concentration-dependent effect of the reference ligands on their cognate cell lines was examined in more detail. Twelve different ligand concentrations were measured on each cell line in an overall 0.01 μM to 100 μM concentration range with 5 repetitions with three technical replicates each time.
(§3) Twelve thousand to 18,000 cells were plated into each well of a black wall, transparent bottom 384-well microplate (Greiner) 48 h or 72 h before the measurements and were simultaneously treated with 1 μg/mL doxycycline. […] The plate has 24 columns, thus we could record responses in up to eight different cell lines in each plate. On the day of the experiment, the growth medium was replaced with 20 µL assay buffer/well (140 mM NaCl, 5 mM KCl, 2 mM CaCl2, 1 mM MgCl2, 5 mM HEPES-Na, 20 mM glucose, pH 7.3, 340 mOsm). […] Baseline fluorescence (F0) was recorded for 5 s, after which 7 µL VOC buffer (140 mM NaCl, 5 mM KCl, 2 mM CaCl2, 1 mM MgCl2, 5 mM HEPES-Na, 31 mM glucose, 0.1% DMSO, pH 7.3, 340 mOsm) was injected into each well in one row and the fluorescence response was recorded for an additional 30 s, at a rate of one read/sec. VOC solutions (VOC buffer with 4× concentration of the final measured VOC concentration, 9 µL/well was injected) were measured on the same wells in a second round with the same protocol. Each individual concentration of a specific VOC sample was recorded in three wells for the same cell line on the same microplate. The raw data were exported in xls file format, F0 and FMAX values, and the fluorescence intensity changes (∆F) were calculated in Excel (Microsoft) (Supplementary file Data summary.xlsx) using the following equation: ΔF=FMAX-F0/F0 (see also Fig. 1C). On each plate, we recorded the response of each cell line to 50 µM VUAA1. The average of these ∆F values of each cell line were used to calculate the VUAA1-normalized values for the rest of the plate, by dividing VOC response ∆F values by the average VUAA1 response ∆F value of the corresponding OR cell line. Each VOC-OR combination was measured three times as technical replicates. […] The average of these replicates were used as one ∆F and VUAA1-normalized ∆F in the following analysis.
(§4) In the next rows we tested the reference VOCs (or other VOCs known to activate the corresponding cell lines), in order to test if all cell lines are responsive. The remaining rows were used to test VOCs with unknown effect.
(§5) The recorded FMAX, F0, ∆F, VUAA1-normalized ∆F values, as well as the OR name, the name of the tested sample, and the final concentration for each well were copied into supplementary file Data summary.xlsx, that was used to summarize all the plates recorded. Here, the averages of the measurements were calculated for each receptor-VOC-concentration combination.

Drosophila OR49b = biological target: T2, Drosophila OR49b (Drosophila melanogaster, UniProt Q9V6H2); experiment: cell-based; conditions: for activation at 1 µM / activation at 10 µM / activation at 100 µM: HEK293; for OR49b response (VUAA1-normalized) at 1 μM / OR49b response (VUAA1-normalized) at 10 μM / OR49b response (VUAA1-normalized) at 100 μM / Average response: OR49b cell line; for Average response: mean of biological replicates
T2 construct: expressed in transfected cells
T2 sequence (Q9V6H2 1-375): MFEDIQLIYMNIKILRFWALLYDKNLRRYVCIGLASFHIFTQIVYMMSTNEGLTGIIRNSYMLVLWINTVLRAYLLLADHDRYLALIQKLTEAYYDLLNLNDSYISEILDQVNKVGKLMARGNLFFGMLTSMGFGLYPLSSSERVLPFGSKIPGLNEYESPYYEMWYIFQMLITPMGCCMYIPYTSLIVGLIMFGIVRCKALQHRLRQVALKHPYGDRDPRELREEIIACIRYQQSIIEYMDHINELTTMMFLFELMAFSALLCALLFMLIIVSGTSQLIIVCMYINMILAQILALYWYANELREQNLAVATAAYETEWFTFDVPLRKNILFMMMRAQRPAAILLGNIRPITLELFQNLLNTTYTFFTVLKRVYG
T2 sequence (Q9VNB5 1-486 partner): T1 sequence (Q9VNB5 1-486 partner)
Protocol: as §1, §2, §3, §4, §5

[1] = HEK293, read-out: OR13a Average response (VUAA1-normalized), 1 μM VOC, 50 μM VUAA1 = 1, responses not exceeding 0.05 considered 0
[2] = HEK293, read-out: OR13a Average response (VUAA1-normalized), 10 μM VOC, 50 μM VUAA1 = 1, responses not exceeding 0.05 considered 0
[3] = HEK293, read-out: OR13a Average response (VUAA1-normalized), 100 μM VOC, 50 μM VUAA1 = 1, responses not exceeding 0.05 considered 0
[4] = ligand concentration 1 (unit not given), 0.05 threshold, values below shown as 0
[5] = ligand concentration 10 (unit not given), 0.05 threshold, values below shown as 0
[6] = ligand concentration 100 (unit not given), 0.05 threshold, values below shown as 0

Row | SMILES | activation at 1 µM (Drosophila OR13a; [1]) | activation at 10 µM (Drosophila OR13a; [2]) | activation at 100 µM (Drosophila OR13a; [3]) | OR13a response (VUAA1-normalized) at 1 μM (Drosophila OR13a; VOC concentration 1 μM) | OR13a response (VUAA1-normalized) at 10 μM (Drosophila OR13a; VOC concentration 10 μM) | OR13a response (VUAA1-normalized) at 100 μM (Drosophila OR13a; VOC concentration 100 μM) | DF norm AVERAGE OR13a (Drosophila OR13a; [4]) | DF norm AVERAGE OR13a (Drosophila OR13a; [5]) | DF norm AVERAGE OR13a (Drosophila OR13a; [6]) | OR49b response (VUAA1-normalized) at 1 μM (Drosophila OR49b; VOC concentration 1 μM) | OR49b response (VUAA1-normalized) at 10 μM (Drosophila OR49b; VOC concentration 10 μM) | OR49b response (VUAA1-normalized) at 100 μM (Drosophila OR49b; VOC concentration 100 μM) | Average response (Drosophila OR49b; odorant cc. 1 µM) | Average response (Drosophila OR49b; odorant cc. 10 µM) | Average response (Drosophila OR49b; odorant cc. 100 µM) | DF norm AVERAGE OR49b (Drosophila OR49b; [4]) | DF norm AVERAGE OR49b (Drosophila OR49b; [5]) | DF norm AVERAGE OR49b (Drosophila OR49b; [6]) | other results
1 | Cc1ccccc1 [toluene] | 0% | 0% | 0% | 0.00 | 0.00 | 0.00 | 0 | 0 | 0 | 0.00 | 0.00 | 0.44 | 0.00 | 0.00 | 0.44 | 0 | 0 | – | activation at 1 µM (Drosophila OR49b; 1 μM VOC, 50 μM VUAA1 = 1, read-out: OR49b Average response (VUAA1-normalized)): 0%; activation at 10 µM (Drosophila OR49b; 10 μM VOC, 50 μM VUAA1 = 1, read-out: OR49b Average response (VUAA1-normalized)): 0%; activation at 100 µM (Drosophila OR49b; 100 μM VOC, 50 μM VUAA1 = 1, read-out: OR49b Average response (VUAA1-normalized)): 44%; DF norm AVERAGE OR49b (Drosophila OR49b; ligand concentration 100 (unit not given), […]): 0.4351
2 | CC1=CCC23CC1C(C)(C)C2CCC3C (stereo not drawn) [α-funebrene] | 0% | 0% | 0% | 0.00 | 0.00 | 0.00 | 0 | 0 | 0 | 0.00 | 0.00 | 0.00 | 0.00 | 0.00 | 0.00 | 0 | 0 | 0 | –
3 | CCCCCCCCCCC [undecane] | 0% | 0% | 0% | 0.00 | 0.00 | 0.00 | 0 | 0 | 0 | 0.00 | 0.00 | 0.00 | 0.00 | 0.00 | 0.0367 | 0 | 0 | 0 | –
4 | CC/C=C\CCO [E-3-hexenol] | – | – | – | – | – | – | – | – | – | – | – | – | – | – | – | – | – | – | OR13a response (VUAA1-normalized response) (Drosophila OR13a; VOC concentration 1 μM): 0.00; OR13a response (VUAA1-normalized response) (Drosophila OR13a; VOC concentration 10 μM): 0.00; OR13a response (VUAA1-normalized response) (Drosophila OR13a; VOC concentration 100 μM): 0.07; OR49b response (VUAA1-normalized response) (Drosophila OR49b; VOC concentration 1 μM): 0.00; OR49b response (VUAA1-normalized response) (Drosophila OR49b; VOC concentration 10 μM): 0.00; OR49b response (VUAA1-normalized response) (Drosophila OR49b; VOC concentration 100 μM): 0.08
5 | C=C1CC/C=C(\C)CC[C@@H]2[C@@H]1CC2(C)C [(-)-trans-caryophyllene] | 0% | 11% | 10% | – | – | – | – | – | – | – | – | – | 0.00 | 0.00 | 0.00 | – | – | – | activation at 1 µM (Drosophila OR13a; HEK293, read-out: OR13a response (VUAA1-normalized response), VOC concentration 1 μM): 0%; activation at 10 µM (Drosophila OR13a; HEK293, read-out: OR13a response (VUAA1-normalized response), VOC concentration 10 μM): 11%; activation at 100 µM (Drosophila OR13a; HEK293, read-out: OR13a response (VUAA1-normalized response), VOC concentration 100 μM): 10%; DF norm AVERAGE OR13a (Drosophila OR13a; concentration 1, normalized fluorescence change, values below 0.05 threshold given as 0): 0; DF norm AVERAGE OR13a (Drosophila OR13a; concentration 10, normalized fluorescence change, values below 0.05 threshold given as 0): 0.1145; DF norm AVERAGE OR13a (Drosophila OR13a; concentration 100, normalized fluorescence change, values below 0.05 threshold given as 0): 0.105; DF norm AVERAGE OR49b (Drosophila OR49b): 0; activation at 1 µM (Drosophila OR49b; VOC concentration 1 μM, read-out: OR49b response (VUAA1-normalized response)): 0%; activation at 10 µM (Drosophila OR49b; VOC concentration 10 μM, read-out: OR49b response (VUAA1-normalized response)): 0%; activation at 100 µM (Drosophila OR49b; VOC concentration 100 μM, read-out: OR49b response (VUAA1-normalized response)): 0%
